Results on 18 molecules are retold here after PubChem BioAssay AID226 (DTP/NCI, 2004).

Values joined by “and” are separate entries in the source; they are usually repeats but may differ in a detail not shown here. Equal entries are not always repeated. Inconclusive results and toxic doses are left out.

The test concerns B6C3F1 mice, intracerebral ependymoblastoma, median survival T/C. Kind of test: NCI In Vivo Anticancer Drug Screen. Data for tumor model Ependymoblastoma (intracerebral) in B6C3F1 mice. The following applies: endpoint: median survival time, higher = longer survival. As to the method: The antitumor activity of compounds was measured in mice bearing transplantable tumors. Survival or tumor size were measured and the results are expressed as the measurement made in the treated group (T) divided by the measurement made in the vehicle treated control group (C). The tumor model used in this assay is Ependymoblastoma (intracerebral) in B6C3F1 mice

Where [1] appears, read: dose: 50.0 mg/kg/injection, schedule: Q01DX005 (ip), vehicle: saline with Tween-80.
Where [2] appears, read: dose: 12.5 mg/kg/injection, schedule: Q01DX005 (ip), vehicle: Klucel (hydroxypropylcellulose) (HPC).
Where [3] appears, read: dose: 25.0 mg/kg/injection, schedule: Q01DX005 (ip), vehicle: Klucel (hydroxypropylcellulose) (HPC).
Setting [4] is: dose: 50.0 mg/kg/injection, schedule: Q01DX005 (ip), vehicle: Klucel (hydroxypropylcellulose) (HPC).
The mark [5] stands for this setting: dose: 128.0 mg/kg/injection, schedule: Q01DX005 (ip), vehicle: Klucel (hydroxypropylcellulose) (HPC).
Setting [6] is: dose: 256.0 mg/kg/injection, schedule: Q01DX005 (ip), vehicle: Klucel (hydroxypropylcellulose) (HPC).
[7] abbreviates: dose: 25.0 mg/kg/injection, schedule: Q01DX005 (ip), vehicle: saline with Tween-80.

For `NC(=O)c1cn(C2OC(CO)C(O)C2O)c2ncnc(N)c12` (configuration not stated), the T/C is, setting by setting: (dose: 0.38 mg/kg/injection, schedule: Q01DX005 (ip), vehicle: Klucel (hydroxypropylcellulose) (HPC)) 92 % of control; (dose: 0.75 mg/kg/injection, schedule: Q01DX005 (ip), vehicle: Klucel (hydroxypropylcellulose) (HPC)) 90 % of control; (dose: 1.5 mg/kg/injection, schedule: Q01DX005 (ip), vehicle: Klucel (hydroxypropylcellulose) (HPC)) 103 % of control; (dose: 3.0 mg/kg/injection, schedule: Q01DX005 (ip), vehicle: Klucel (hydroxypropylcellulose) (HPC)) 94 % of control.
With `CC1(C)OC2C(COC(=O)c3ccc([N+](=O)[O-])cc3)OC(NC(=O)N(CCCl)N=O)C2O1` (configuration not stated), the T/C by setting is: (dose: 5.0 mg/kg/injection, schedule: Q01DX009 (ip), vehicle: saline) 100 % of control; (dose: 10.0 mg/kg/injection, schedule: Q01DX009 (ip), vehicle: saline) 207 % of control; (dose: 12.5 mg/kg/injection, schedule: Q01DX009 (ip), vehicle: saline with Tween-80) 195 % of control; (dose: 25.0 mg/kg/injection, schedule: Q01DX009 (ip), vehicle: saline with Tween-80) 248 % of control.
For `O=C1C(=O)c2ccccc2C(O)=C1CC=C(Cl)Cl`, the T/C (dose: 10.0 mg/kg/injection, schedule: Q01DX005 (ip), vehicle: Klucel (hydroxypropylcellulose) (HPC)) is 100 % of control and 103 % of control; the T/C (dose: 20.0 mg/kg/injection, schedule: Q01DX005 (ip), vehicle: Klucel (hydroxypropylcellulose) (HPC)) is 96 % of control and 98 % of control; the T/C (dose: 40.0 mg/kg/injection, schedule: Q01DX005 (ip), vehicle: Klucel (hydroxypropylcellulose) (HPC)) is 103 % of control and 89 % of control; the T/C (dose: 80.0 mg/kg/injection, schedule: Q01DX005 (ip), vehicle: Klucel (hydroxypropylcellulose) (HPC)) was 96 % of control and 103 % of control.
For the molecule `CCSc1ncnc2c1ncn2C1OC(CO)C(O)C1O` (configuration not stated), the T/C by setting is: under setting [1], 100 % of control and 106 % of control and 122 % of control; (dose: 100.0 mg/kg/injection, schedule: Q01DX005 (ip), vehicle: saline with Tween-80) 103 % of control and 106 % of control; (dose: 200.0 mg/kg/injection, schedule: Q01DX005 (ip), vehicle: saline with Tween-80) 107 % of control and 109 % of control.
As for `[Cl][Pt+2][Cl].[NH-]C1CCC1.[NH-]C1CCC1`, the T/C (dose: 10.0 mg/kg/injection, schedule: Q01DX005 (ip), vehicle: dextrose) is 103 % of control; the T/C (dose: 20.0 mg/kg/injection, schedule: Q01DX005 (ip), vehicle: dextrose) was 103 % of control; the T/C (dose: 80.0 mg/kg/injection, schedule: Q01DX005 (ip), vehicle: dextrose) was 90 % of control.
On to `COc1cc(C[C@H]2c3cc(OC)c(OC)cc3CCN2C)c(Oc2cc3c(cc2OC)-c2c(OC)c(OC)cc4c2[C@H](C3)N(C)CC4)cc1OC`, for which the T/C runs as follows: under setting [2], 94 % of control; under setting [3], 100 % of control; under setting [4], 100 % of control and 102 % of control and 105 % of control; (dose: 100.0 mg/kg/injection, schedule: Q01DX005 (ip), vehicle: Klucel (hydroxypropylcellulose) (HPC)) 102 % of control.
Regarding `CC(=O)O[C@]1(C(C)=O)CC[C@H]2[C@@H]3C[C@H](C)C4=CC(=O)CC[C@]4(C)[C@H]3CC[C@@]21C`, the T/C is, setting by setting: (dose: 8.0 mg/kg/injection, schedule: Q01DX005 (ip), vehicle: Klucel (hydroxypropylcellulose) (HPC)) 96 % of control and 104 % of control; (dose: 16.0 mg/kg/injection, schedule: Q01DX005 (ip), vehicle: Klucel (hydroxypropylcellulose) (HPC)) 101 % of control and 122 % of control; (dose: 32.0 mg/kg/injection, schedule: Q01DX005 (ip), vehicle: Klucel (hydroxypropylcellulose) (HPC)) 101 % of control and 112 % of control; (dose: 64.0 mg/kg/injection, schedule: Q01DX005 (ip), vehicle: Klucel (hydroxypropylcellulose) (HPC)) 92 % of control and 97 % of control; under setting [5], 95 % of control and 98 % of control; under setting [6], 94 % of control and 97 % of control.
Consider `Nc1nc(=S)c2ncn(C3OC(COC(=O)c4ccccc4)C(OC(=O)c4ccccc4)C3OC(=O)c3ccccc3)c2[nH]1` (configuration not stated), for which the T/C (dose: 12.5 mg/kg/injection, schedule: Q01DX005 (ip), vehicle: saline with Tween-80) is 100 % of control; the T/C under setting [7] is 100 % of control; the T/C under setting [1] is 105 % of control.
For `CC1(C)OCC(CO)(Nc2nc(N3CC3)nc(N3CC3)n2)CO1`, the T/C is, setting by setting: (dose: 1.25 mg/kg/injection, schedule: Q01DX005 (ip), vehicle: suspension in saline) 105 % of control; (dose: 2.5 mg/kg/injection, schedule: Q01DX005 (ip), vehicle: suspension in saline) 103 % of control; (dose: 5.0 mg/kg/injection, schedule: Q01DX005 (ip), vehicle: suspension in saline) 113 % of control.
On to `CCCC(=O)OCC1OC(n2cnc3c(=S)nc[nH]c32)C(OC(=O)CCC)C1OC(=O)CCC` (configuration not stated), for which the T/C under setting [7] is 103 % of control and the T/C under setting [1] is 105 % of control.
Turning to `CC(CN1CC(=O)NC(=O)C1)N1CC(=O)NC(=O)C1` (configuration not stated), the T/C is 101 % of control and 102 % of control (dose: 8.0 mg/kg/injection, schedule: Q01DX001 (ip), vehicle: Klucel (hydroxypropylcellulose) (HPC)); 104 % of control and 86 % of control (dose: 16.0 mg/kg/injection, schedule: Q01DX001 (ip), vehicle: Klucel (hydroxypropylcellulose) (HPC)); 101 % of control and 102 % of control (dose: 32.0 mg/kg/injection, schedule: Q01DX001 (ip), vehicle: Klucel (hydroxypropylcellulose) (HPC)); 103 % of control and 109 % of control (dose: 64.0 mg/kg/injection, schedule: Q01DX001 (ip), vehicle: Klucel (hydroxypropylcellulose) (HPC)); 99 % of control and 103 % of control (dose: 128.0 mg/kg/injection, schedule: Q01DX001 (ip), vehicle: Klucel (hydroxypropylcellulose) (HPC)).
Consider `COc1cc([C@@H]2c3cc4c(cc3[C@@H](OC3OC5COC(C)OC5C(O)C3O)[C@H]3COC(=O)[C@H]23)OCO4)cc(OC)c1O` (some centres not stated), for which the T/C is, setting by setting: (dose: 0.5 mg/kg/injection, schedule: Q01DX005 (ip), vehicle: suspension in saline) 101 % of control; (dose: 1.0 mg/kg/injection, schedule: Q01DX005 (ip), vehicle: suspension in saline) 100 % of control; (dose: 2.0 mg/kg/injection, schedule: Q01DX005 (ip), vehicle: suspension in saline) 110 % of control and 114 % of control; (dose: 4.0 mg/kg/injection, schedule: Q01DX005 (ip), vehicle: suspension in saline) 112 % of control and 120 % of control; (dose: 16.0 mg/kg/injection, schedule: Q01DX005 (ip), vehicle: suspension in saline) 102 % of control.
With `Cc1ncc(CO)c(C)c1O`, the T/C was 102 % of control and 108 % of control under setting [5]; 101 % of control and 105 % of control under setting [6].
As for `NC(=O)c1ncn(C2OC(CO)C(O)C2O)n1` (configuration not stated), the T/C by setting is: (dose: 20.0 mg/kg/injection, schedule: Q01DX005 (ip), vehicle: saline) 99 % of control and 100 % of control; (dose: 40.0 mg/kg/injection, schedule: Q01DX005 (ip), vehicle: saline) 98 % of control and 101 % of control; (dose: 80.0 mg/kg/injection, schedule: Q01DX005 (ip), vehicle: saline) 92 % of control and 103 % of control; (dose: 160.0 mg/kg/injection, schedule: Q01DX005 (ip), vehicle: saline) 104 % of control and 121 % of control; (dose: 320.0 mg/kg/injection, schedule: Q01DX005 (ip), vehicle: saline) 97 % of control and 118 % of control.
`Nc1ccn(C2OC(COC(=O)C34CC5CC(CC(C5)C3)C4)C(O)C2O)c(=O)n1` (configuration not stated): the T/C runs as follows: (dose: 6.25 mg/kg/injection, schedule: Q01DX005 (ip), vehicle: Klucel (hydroxypropylcellulose) (HPC)) 98 % of control and 105 % of control; under setting [2], 100 % of control and 105 % of control; under setting [3], 104 % of control and 116 % of control; under setting [4], 109 % of control.
Regarding `CN(C)CC(=O)c1ccc(O)c(O)c1`, the T/C was 100 % of control (dose: 100.0 mg/kg/injection, schedule: Q01DX005 (ip), vehicle: saline); 94 % of control (dose: 200.0 mg/kg/injection, schedule: Q01DX005 (ip), vehicle: saline); 106 % of control (dose: 400.0 mg/kg/injection, schedule: Q01DX005 (ip), vehicle: saline); 108 % of control (dose: 800.0 mg/kg/injection, schedule: Q01DX005 (ip), vehicle: saline).
On to `O=C1c2c(O)ccc(O)c2C(=O)c2c(NCCNCCO)ccc(NCCNCCO)c21`, for which the T/C is, setting by setting: (dose: 0.25 mg/kg/injection, schedule: Q01DX005 (ip), vehicle: saline with Tween-80) 103 % of control; (dose: 0.5 mg/kg/injection, schedule: Q01DX005 (ip), vehicle: saline with Tween-80) 92 % of control and 98 % of control; (dose: 1.0 mg/kg/injection, schedule: Q01DX005 (ip), vehicle: saline with Tween-80) 103 % of control and 104 % of control; (dose: 2.0 mg/kg/injection, schedule: Q01DX005 (ip), vehicle: saline with Tween-80) 91 % of control and 103 % of control.
On to `O=C(O)C1(C(=O)O)CCC1.[NH2-].[NH2-].[Pt+2]`, for which the T/C reads like this: (dose: 16.0 mg/kg/injection, schedule: Q01DX005 (ip), vehicle: dextrose) 110 % of control and 118 % of control; (dose: 32.0 mg/kg/injection, schedule: Q01DX005 (ip), vehicle: dextrose) 119 % of control and 120 % of control.
